Experimental data as given in paper PMC7230990, “Deproteinization as a Rapid Method of Saliva Purification for the Determination of Carbamazepine and Carbamazepine-10,11 Epoxide” (Journal of Clinical Medicine, 2020).
Where “and” joins values, the source holds several entries; their conditions need not be identical. Equal values may be shown once.

Legend:
[1] = Carbamazepine and carbamazepine-10,11 epoxide concentrations in saliva of patients treated with carbamazepine (UHPLC-DAD after deproteinization); format: in vivo, human
Method: The chromatographic analysis was performed with a Nexer XR UHPLC (Ultra High Performance Liquid Chromatography) liquid chromatograph (Schimadzu, Kyoto, Japan), equipped with a SPD-M30A UV-Vis detector with a diode array and a highly sensitive measuring cell SPD-M30A (85 mm), CBM-20 Alite control system, LC-30AD pump, SIL-30AC autosampler, and CTO-20AC thermostat (Shimadzu, Kyoto, Japan). The compounds were separated using a Luna Omega 1.6 µm Polar C18 (LC Column 50 × 2.1 mm ID) with pre-columns (UHPLC Fully Porous Polar C18, 2.1 mm ID). The compounds were eluted from the column at 35 °C with a mobile phase consisting of water with added formic acid and triethylamine (TEA) (solvent A, pH 4.2) and acetonitrile (solvent B) at a flow of 1 mL/min.
The saliva samples were thawed, centrifuged, and then 200 μL of test material was collected and placed in plastic tubes. A 1% formic acid solution in acetonitrile (600 µL) was added to each of them, mixed with a vortex, shaken (laboratory shaker 358 S, Elpin, Poland) for about 10 min, and centrifuged for 5 min at 8000 rpm. The supernatant was transferred to glass tubes and evaporated. The dry residue was dissolved in 100 μL of an acetonitrile/water mixture with formic acid (1:10), and 10 μL was injected into the chromatographic column.
The usefulness of the method was determined by examining the saliva samples of 20 patients treated with carbamazepine preparations. They were collected from patients of the Nervous and Mentally Ill Hospital in Starogard Gdański (Poland). The study protocol was approved by the ethical committee of the Medical University of Gdansk, Poland (NKBBN/139/2016). Saliva was taken using Salivettes about 2 h after the administration of carbamazepine. The Salivette was placed in a test tube and centrifuged, and the obtained filtrate was frozen at −21 °C and stored until analysis. To perform the analyses, the samples were thawed, centrifuged, and 200 μL of liquid taken. Then, 50 μL of IS solution (10 μg/mL) was added and the procedure described in Section 2.4 was followed.

[2] = Stability of extracts kept in the autosampler at 15 °C for 72 h; format: physicochemical; settings: extracts in autosampler at 15 °C for 72 h
Method: The stability of the analytes was also determined during their storage in an autosampler at 15 °C for 72 h. For this purpose, five samples of each concentration were extracted and chromatographed. After 72 h, the samples were then chromatographed again alongside a freshly prepared calibration curve.
(§1) The compounds whose concentration decreased by less than 15% under the given storage conditions were considered to be stable.

[3] = set-up: method as in PMID 29403934, PMID 23288091, PMID 29957667; settings: cited from earlier work
[4] = Stability of analytes in spiked saliva stored in a fridge at 8 °C; format: in vitro ADME, human; settings: for stability under the tested conditions: saliva at 8 °C, freeze–thaw at −21 °C, autosampler 15 °C 72 h, 30, 2000, 3750 ng/mL, stable = decrease less than 15%; for Difference (%): spiked saliva stored in a fridge at 8 °C
Method: The stability of the analytes was tested for three concentrations (low QC, medium QC, and high QC). The stability of the analytes was determined both in the matrix during storage at 8 °C and in a freeze–thaw test, during which spiked saliva samples were stored at −21 °C. […] The remainder of the sample was placed back in the refrigerator or frozen and analyzed in the following days. The compounds whose concentration decreased by less than 15% under the given storage conditions were considered to be stable.

[5] = Stability of analytes in spiked saliva, freeze–thaw test at −21 °C; format: in vitro ADME, human; settings: freeze–thaw cycles at −21 °C
Method: The stability of the analytes was tested for three concentrations (low QC, medium QC, and high QC). The stability of the analytes was determined both in the matrix during storage at 8 °C and in a freeze–thaw test, during which spiked saliva samples were stored at −21 °C. For each concentration of carbamazepine and metabolite, three 800 μL saliva samples were prepared in plastic tubes, spiked with an appropriate volume of analytes, and mixed. Then, 200 μL of saliva was taken from each sample, IS added, extracted, and chromatographed according to the procedures described in Section 2.4 and Section 2.5. The remainder of the sample was placed back in the refrigerator or frozen and analyzed in the following days.
as §1

| mean concentration in saliva ([1]; female, human, in vivo) | determined concentrations in patient saliva, range ([1]; human, in vivo) | mean concentration in saliva ([1]; male, human, in vivo) | highest concentration reduction ([4]; 30 ng/mL in saliva samples stored at 8 °C) | SMILES | mean concentration in saliva ([1]; female patients) | mean concentration in saliva ([1]; male patients) | Carbamazepine Concentration ([1]; saliva of individual patients, about 2 h after administration of carbamazepine, dose 400-1800 mg/day) | Difference (%) ([2]; 30 ng/mL) | Difference (%) ([2]; 2000 ng/mL) | Difference (%) ([2]; 3750 ng/mL) | half-life ([3]; after a single administration) | excreted in the urine [3] | stability under the tested conditions [4] | Difference (%) ([4]; 30 ng/mL) | Difference (%) ([4]; 2000 ng/mL) | Difference (%) ([4]; 3750 ng/mL) | Difference (%) ([5]; 30 ng/mL) | Difference (%) ([5]; 2000 ng/mL) | Difference (%) ([5]; 3750 ng/mL) |
| --- | --- | --- | --- | --- | --- | --- | --- | --- | --- | --- | --- | --- | --- | --- | --- | --- | --- | --- | --- |
|  |  |  |  | NC(=O)N1c2ccccc2C=Cc2ccccc21 [Carbamazepine, carbamazepine] | 967 ng/mL | 1882 ng/mL | 344.7 ng/mL and 690.7 ng/mL and 1285.1 ng/mL and 464.0 ng/mL and 282.2 ng/mL and 472.9 ng/mL and 2456.8 ng/mL and 1668.1 ng/mL and 613.5 ng/mL and 784.3 ng/mL and 1119.9 ng/mL and 607.6 ng/mL and 1198.2 ng/mL and 1192.3 ng/mL and 1817.8 ng/mL and 4891.0 ng/mL and 4839.8 ng/mL and 1165.7 ng/mL and 262.2 ng/mL and 2334.2 ng/mL | −0.30% | −1.12% | −1.72% | 36 h | 72% | stable | −3.91% | −2.53% | −1.93% | −2.25% | −2.16% | −1.44% |
| 249 ng/mL | 120 to 664 ng/mL | 299 ng/mL | 6% | NC(=O)N1c2ccccc2C2OC2c2ccccc21 (centres unmarked) [Carbamazepine-10,11 epoxide, carbamazepine-10,11 epoxide] |  |  |  | −3.64% | −2.3% | 0.38% |  |  | stable | −6.23% | −3.56% | −2.75% | −2.45% | −1.92% | −0.48% |
